18 compounds from patent US11976083B2, “Inhibitors of peptidylarginine deiminases” (Gilead Sciences, Inc., priority 2020, dated 2024) can be followed below.

The assay concerns the target T1, human PAD4 (Homo sapiens, UniProt Q9UM07).
T1 construct: human PAD4 (NM_012387), A2-P663, was PCR amplified; His-SUMO (N, cleaved yes); made in house; host or cells: E. coli BL21(DE3)
Kind of assay: In vitro PAD4 BAEE biochemical assay. The note with it: BAEE substrate 3 mM, 5 nM PAD4, 2 mM calcium chloride; geometric mean of multiple experiments. In short, it runs like this:
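Recombinant human PAD4 (5 nM final) with 2 mM CaCl2 was preincubated with compound 30 min at 25 °C in MOPS buffer pH 7.6, then reacted with 3 mM BAEE for 2 h at 25 °C. After EDTA stop, released ammonia was detected by o-phthalaldehyde/DTT fluorescence (ex 405/em 535 nm); IC50 from four-parameter fit, geometric mean.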

T1 sequence (Q9UM07 2-663): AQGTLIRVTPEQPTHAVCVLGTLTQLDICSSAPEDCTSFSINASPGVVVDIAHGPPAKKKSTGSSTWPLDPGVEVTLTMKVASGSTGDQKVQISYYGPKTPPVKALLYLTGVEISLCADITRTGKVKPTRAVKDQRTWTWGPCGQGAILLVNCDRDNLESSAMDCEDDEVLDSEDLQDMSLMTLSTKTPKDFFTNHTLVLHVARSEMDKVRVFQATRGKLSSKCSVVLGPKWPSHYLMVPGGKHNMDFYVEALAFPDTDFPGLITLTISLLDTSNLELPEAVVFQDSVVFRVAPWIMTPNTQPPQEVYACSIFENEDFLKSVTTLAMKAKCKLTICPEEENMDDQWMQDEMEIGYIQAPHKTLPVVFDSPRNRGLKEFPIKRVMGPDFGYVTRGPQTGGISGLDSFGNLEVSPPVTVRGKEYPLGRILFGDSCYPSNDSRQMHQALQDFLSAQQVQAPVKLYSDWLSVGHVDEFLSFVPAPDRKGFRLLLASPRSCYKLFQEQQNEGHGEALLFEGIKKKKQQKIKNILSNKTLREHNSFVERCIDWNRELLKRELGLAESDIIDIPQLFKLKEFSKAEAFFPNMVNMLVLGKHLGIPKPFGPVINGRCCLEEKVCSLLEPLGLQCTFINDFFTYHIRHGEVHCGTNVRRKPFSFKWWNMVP

For `COc1cc(C(=O)N2[C@H]3CC[C@@H]2[C@H](N)C3)cc2nc(-c3cc4ccc5nc4n3C/C=C\CCCCS(=O)(=O)N[C@@H]5C)n(C)c12` [Example 23, [(1˜{R},2˜{R},4˜{S})-2-amino-7-azabicyclo[2.2.1]heptan-7-yl]-[7-methoxy-1-methyl-2-[(11˜{R})-11-methyl-9,9-dioxo-9$1^6-thia-1,10,19-triazatricyclo[10.5.2.0^{15,18}]nonadeca-3,12(19),13,15(18),16-pentaen-17-yl]benzimidazol-5-yl]methanone], the IC50 came to 40 nM. For `COc1cc(C(=O)N[C@H]2CNCC[C@@H]2F)cc2nc(-c3cc4ccc5nc4n3C[C@@H]3[C@@H](CCCC(C)(C)C(=O)N[C@@H]5C)C3(F)F)n(C)c12` (single isomer, unassigned) [Example 365, 2-[(3˜{S},5˜{R},12˜{R})-4,4-difluoro-9,9,12-trimethyl-10-oxo-1,11,20-triazatetracyclo[11.5.2.0^{3,5}.0^{16,19}]icosa-13(20),14,16(19),17-tetraen-18-yl]-˜{N}-[(3˜{S},4˜{S})-4-fluoro-3-piperidyl]-7-methoxy-1-methyl-benzimidazole-5-carboxamide] the value was 119 nM; for `COc1cc(C(=O)N2CCC[C@@H](N)C2)cc2nc(-c3cc4ccc5nc4n3CCCCCCc3ccccc3C(=O)N[C@@H]5C)n(C)c12` [Example 29, (2~{R})-18-[5-[(3~{R})-3-aminopiperidine-1-carbonyl]-7-methoxy-1-methyl-benzimidazol-2-yl]-2-methyl-3,17,23-triazatetracyclo[15.5.2.0^{5,10}.0^{20,24}] tetracosa-1(23),5,7,9,18,20(24),21-heptaen-4-one], 70 nM. On to `COc1cc(C(=O)N2[C@H]3CC[C@@H]2[C@H](N)C3)cc2nc(-c3cc4ccc5nc4n3CCCCCCn3nccc3C(=O)N[C@@H]5C)c(C)n12` [Example 35, (2~{R})-17-[7-[(1~{R},2~{R},4~{S})-2-amino-7-azabicyclo[2.2.1]heptane-7-carbonyl]-5-methoxy-3-methyl-imidazo[1,2-a]pyridin-2-yl]-2-methyl-3,8,9,16,22-pentazatetracyclo[14.5.2.0^{5,9).0^{19,23}] tricosa-1(22),5,7,17,19(23),20-hexaen-4-one], for which the IC50 amounted to 34 nM. For `C[C@@H]1[C@H](N)CCCN1C(=O)c1cc(F)c2c(c1)nc(-c1cc3ccc4nc3n1CC(F)(F)CCC[C@]1(F)C[C@H]1C(=O)N[C@@H]4C)n2C1CC1` [Example 701, (2~{R},5~{S},7~{S})-14-[5-[(2~{R},3~{R})-3-amino-2-methyl-piperidine-1-carbonyl]-1-cyclopropyl-7-fluoro-benzimidazol-2-yl]-7,11,11-trifluoro-2-methyl-3,13,19-triazatetracyclo[11.5.2.0^ {5,7}.0^{16,20}]icosa-1(19),14,16(20),17-tetraen-4-one] the value was 5 nM; for `COc1cc(C(=O)N2C[C@H](N)C[C@@H](F)C2)cc2nc(-c3cc4ccc5nc4n3CCCCCCC(C)(C)C(=O)N[C@@H]5C)n(C)c12` [Example 193, (11~{R})-17-[5-[(3~{R},5~{R})-3-amino-5-fluoro-piperidine-1-carbonyl]-7-methoxy-1-methyl-benzimidazol-2-yl]-8,8,11-trimethyl-1,10,19-triazatricyclo[10.5.2.0^{15,18}]nonadeca-12(19),13,15(18),16-tetraen-9-one], 66 nM; for `COc1cc(C(=O)N[C@H]2CNCC[C@@H]2F)cc2nc(-c3cc4ccc5nc4n3CCCCCc3cnn(C)c3C(=O)N[C@@H]5C)n(C)c12` [Example 181, 2-[(2~{R})-2,6-dimethyl-4-oxo-3,6,7,15,21-pentazatetracyclo[13.5.2.0^{5,9}.0^{18,22}]docosa-1(21),5(9),7,16,18(22),19-hexaen-16-yl]-~{N}-[(3~{S},4~{S})-4-fluoro-3-piperidyl]-7-methoxy-1-methyl-benzimidazole-5-carboxamide], 171 nM. Consider `COc1cc(C(=O)N[C@@H]2CCCCNC2)cc2nc(-c3cc4ccc5nc4n3CCCCCCC(C)(C)C(=O)N[C@@H]5C)n(C)c12` [Example 78, ~{N}-[(3~{R})-azepan-3-yl]-7-methoxy-1-methyl-2-[(11~{R})-8,8,11-trimethyl-9-oxo-1,10,19-triazatricyclo[10.5.2.0^{15,18}]nonadeca-12(19),13,15(18),16-tetraen-17-yl]benzimidazole-5-carboxamide], for which the IC50 is 80 nM. As for `COc1cc(C(=O)N2CC[C@@H](OC)[C@@H](N)C2)cc2nc(-c3cc4ccc5nc4n3CCCCCCC[C@@H](C(F)(F)F)N[C@@H]5C)n(C)c12` [Example 699, [(3~{S},4~{R})-3-amino-4-methoxy-1-piperidyl]-[7-methoxy-1-methyl-2-[(9~{S},11~ {R})-11-methyl-9-(trifluoromethyl)-1,10,19-triazatricyclo[10.5.2.0^ {15,18}]nonadeca-12(19),13,15(18),16-tetraen-17-yl]benzimidazol-5-yl] methanone], the IC50 was 640 nM. Under `COc1cc(C(=O)N2CC[C@H]3OCCN[C@H]3C2)cc2nc(-c3cc4ccc5nc4n3CCCCCCC3(CC3)C(=O)N[C@@H]5C)n(C)c12` [Example 343, (11~{R})-17-[5-[(4~{a}~{S),8~{a}~{R})-2,3,4,4~{a},5,7,8,8~{a}-octahydropyrido[4,3-b][1,4]oxazine-6-carbonyl]-7-methoxy-1-methyl-benzimidazol-2-yl]-11-methyl-spiro[1,10,19-triazatricyclo[10.5.2.0^{15,18}]nonadeca-12(19),13,15(18),16-tetraene-8,1′-cyclopropane]-9-one] stands 371 nM; under `C[C@H]1NC(=O)C(C)(C)CCCCCCn2c(-c3nc4cc(C(=O)N5C[C@H](N)C[C@@H](F)C5)c(F)cc4n3C3CC3)cc3ccc1nc32` [Example 194, (11~{R})-17-[5-[(3~{R},5~{R})-3-amino-5-fluoro-piperidine-1-carbonyl]-1-cyclopropyl-6-fluoro-benzimidazol-2-yl]-8,8,11-trimethyl-1,10,19-triazatricyclo[10.5.2.0^{15,18}]nonadeca-12(19),13,15(18),16-tetraen-9-one], 150 nM; under `COc1cc(C(=O)N[C@H]2CNC[C@H](C)C2)cc2nc(-c3cc4ccc5nc4n3CCCCCCC(C)(C)C(=O)N[C@@H]5C)n(C)c12` [Example 67, 7-methoxy-1-methyl-~{N}-[(3~{R},5~{R})-5-methyl-3-piperidyl]-2-[(11~{R})-8,8,11-trimethyl-9-oxo-1,10,19-triazatricyclo[10.5.2.0^{15,18}]nonadeca-12(19),13,15(18),16-tetraen-17-yl]benzimidazole-5-carboxamide], 1300 nM.

With `COc1cc(C(=O)N2[C@H]3CC[C@@H]2[C@H](N)C3)cc2nc(-c3cc4ccc5cc4n3CCCC3CCN(CC3)C(=O)c3ccccc3-5)n(C)c12` [Example 101, 17-[5-[(1~{R},2~{R},4~{S})-2-amino-7-azabicyclo[2.2.1]heptane-7-carbonyl]-7-methoxy-1-methyl-benzimidazol-2-yl]-9,16-diazapentacyclo[14.5.2.2^{9,12}.0^{2,7}.0^ {19,23}]pentacosa-1(22),2,4,6,17,19(23),20-heptaen-8-one], the IC50 was determined as 7450 nM. For `C[C@@H]1[C@H](N)CCCN1C(=O)c1cc(F)c2c(c1)nc(-c1cc3ccc4nc3n1CCCCCc1ncc3ccccc3c1C(=O)N[C@@H]4C)n2C1CC1` [Example 748, (2~{R})-21-[5-[(2~{R},3~ {R})-3-amino-2-methyl-piperidine-1-carbonyl]-1-cyclopropyl-7-fluoro-benzimidazol-2-yl]-2-methyl-3,13,20,26-tetrazapentacyclo[18.5.2.0^ {5,14}.0^{6,11}.0^{23,27}] heptacosa-1(26),5(14),6(11), 7,9,12,21,23(27),24-nonaen-4-one] the value was 25 nM; for `COc1cc(C(=O)N2CC[C@@H](OC(F)F)[C@@H](N)C2)cc2nc(-c3cc4ccc5nc4n3CCCCCCC(C)(C)C(=O)N[C@@H]5C)n(C)c12` [Example 297, (11~{R})-17-[5-[(3~{S},4~{R})-3-amino-4-(difluoromethoxy)piperidine-1-carbonyl]-7-methoxy-1-methyl-benzimidazol-2-yl]-8,8,11-trimethyl-1,10,19-triazatricyclo[10.5.2.0^{15,18}]nonadeca-12(19),13,15(18),16-tetraen-9-one], 129 nM; for `C[C@H]1NC(=O)c2cnccc2CCCCCn2c(-c3nc4cc(C(=O)N[C@H]5CNCC[C@@H]5F)c(F)cc4n3C)cc3ccc1nc32` [Example 349, 6-fluoro-~{N}-[(3~{S},4~{S})-4-fluoro-3-piperidyl]-1-methyl-2-[(2~{R})-2-methyl-4-oxo-3,7,16,22-tetrazatetracyclo[14.5.2.0^{5,10}.0^{19,23}]tricosa-1(22),5,7,9,17,19(23),20-heptaen-17-yl]benzimidazole-5-carboxamide], 34 nM. Consider `C[C@H]1NC(=O)[C@@H]2C[C@H]2CCCCCn2c(-c3nc4cc(C(=O)N[C@H]5CNCC[C@@H]5F)cnc4n3C3CC3)cc3ccc1nc32` [Example 573, 3-cyclopropyl-~{N}-[(3~ {S},4~{S})-4-fluoro-3-piperidyl]-2-[(2~{R},5~ {R},7~{R})-2-methyl-4-oxo-3,13,19-triazatetracyclo [11.5.2.0^{5,7}.0^{16,20}]icosa-1(19),14,16(20), 17-tetraen-14-yl]imidazo [4,5-b]pyridine-6-carboxamide], for which the IC50 worked out at 23 nM. `C[C@H]1NC(=O)[C@@H]2C[C@H]2CCCC(F)(F)Cn2c(-c3nc4cc(C(=O)N5C[C@H](N)[C@@H]6CC[C@H]5C6)ccc4n3C3CC3)cc3ccc1nc32` [Example 914, (2~{R},5~{R},7~{R})-14-[5-[(1~{S},4~{R},5~{R})-4-amino-2-azabicyclo[3.2.1]octane-2-carbonyl]-1-cyclopropyl-benzimidazol-2-yl]-11,11-difluoro-2-methyl-3,13,19-triazatetracyclo[11.5.2.0^ {5,7}.0^{16,20}]icosa-1(19), 14,16(20),17-tetraen-4-one]: the IC50 came out at 16 nM.

One may read the IC50 as the concentration needed to halve the response being measured.
